Reference: patent publication US20260022142A1, “MACROCYCLIC IMMUNOMODULATORS” (Bristol-Myers Squibb Company, priority 2022, published 2026)
Numbered stars: 1 amine (or outer) side, 2 acyl side, 3 side chain; on linkers, the order of the positions; unused ones are H or OH. Bridge positions count the residues as written; N and C are the ends. Square brackets hold non-standard residues; d marks the D form. Peptide text beside a SMILES is read from it. * marks the point of attachment. Phe(4-COOH) = N[C@@H](Cc1ccc(C(=O)O)cc1)C(=O)O; Bip = N[C@@H](Cc1ccc(-c2ccccc2)cc1)C(=O)O; Phe(3-Me) = Cc1cccc(C[C@H](N)C(=O)O)c1; X5 = CC(C)(CCN)[C@H](N[*:1])C(=O)[*:2]; Abu(3S-NH2) = C[C@H](N)[C@H](N)C(=O)O; NH(CH2)12COOH = O=C(O)CCCCCCCCCCCCN*; Val(3-OH) = CC(C)(O)[C@H](N)C(=O)O; 4Pal = N[C@@H](Cc1ccncc1)C(=O)O; 2Thi = N[C@@H](Cc1cccs1)C(=O)O; Cha = N[C@@H](CC1CCCCC1)C(=O)O; Cba = N[C@@H](CC1CCC1)C(=O)O; Carboxymethyl = O=C(O)C*; Orn = NCCC[C@H](N)C(=O)O; Aun = NCCCCCCCCCCC(=O)O; Dab = NCC[C@H](N)C(=O)O; Nva = CCC[C@H](N)C(=O)O; Dap = NC[C@H](N)C(=O)O; Ac3c = NC1(C(=O)O)CC1

Biological target: T1, PD-1/PD-L1 interaction (PE-labeled human PD-L1-Ig binding to Jurkat cell line over-expressing human PD-1) (Homo sapiens, UniProt Q15116)
T1 construct: expressed in transfected cells; host or cells: Jurkat
Test: Jurkat-PD-1 Cell Binding High-Content Screening Assay (CBA)
Assay type: cell-based
Settings: Jurkat cell line over-expressing human PD-1; PE-labeled PD-L1-Ig 20 nM final; read-out: Jurkat hPD1-PDL1 IC50
Procedure, shortened: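 Human PD-L1-Ig carrying a covalent PE label on its Ig tag serves as the probe, applied at 20 nM final to compound-treated (2 h, 37° C) Jurkat-hPD-1 cells in medium with 10% fetal calf serum. After one hour, fixation and nuclear staining precede high-content image analysis.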

T1 sequence (Q15116 25-288): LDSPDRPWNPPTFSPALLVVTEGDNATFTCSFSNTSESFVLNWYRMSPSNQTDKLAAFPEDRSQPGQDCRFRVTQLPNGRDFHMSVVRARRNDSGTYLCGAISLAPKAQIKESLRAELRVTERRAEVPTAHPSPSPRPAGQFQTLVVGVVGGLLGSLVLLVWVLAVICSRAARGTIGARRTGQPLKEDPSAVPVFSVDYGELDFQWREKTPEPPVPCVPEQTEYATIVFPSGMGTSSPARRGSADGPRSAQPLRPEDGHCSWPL

IC50 [nM]	Structure (SMILES)
4.6	Cc1cccc(C[C@@H]2NC(=O)[C@H](CC(=O)O)NC(=O)[C@H](Cc3ccc(OCC(=O)O)cc3)NC(=O)[C@H](CCCNC(=N)N)NC(=O)CSC[C@@H](C(=O)N[C@@H](CCN)C(=O)NCCCCCCCCCCC(=O)O)NC(=O)[C@H](CO)NC(=O)[C@H](C(C)(C)O)NC(=O)[C@H](CC3CCCCC3)NC(=O)[C@H](CCN)NC(=O)[C@@H](CC(C)C)NC(=O)[C@H](CCCN)NC(=O)[C@H](Cc3ccc(OCC(=O)O)cc3)NC(=O)[C@H](Cc3ccc(-c4ccccc4)cc3)NC(=O)[C@H](Cc3ccc(OCC(=O)O)cc3)NC2=O)c1 [Compound 2171] ({CH2CO}-RY(Carboxymethyl)D[Phe(3-Me)]Y(Carboxymethyl)[Bip]Y(Carboxymethyl)[Orn][dL][Dab][Cha][Val(3-OH)]SC[Dab][Aun]-OH; thioether N-14)
30.6	Cc1cccc(C[C@@H]2NC(=O)[C@H](CC(=O)O)NC(=O)[C@H](Cc3ccc(OCC(=O)O)cc3)NC(=O)[C@H](CN)NC(=O)CSC[C@@H](C(=O)N[C@H](C(=O)NCCCCCCCCCCC(=O)O)[C@H](C)N)NC(=O)[C@H](CO)NC(=O)[C@H](C(C)C)NC(=O)[C@H](CC3CCCCC3)NC(=O)[C@H](CCN)NC(=O)[C@@H](CC(C)C)NC(=O)[C@H](CCCN)NC(=O)[C@H](Cc3ccc(OCC(=O)O)cc3)NC(=O)[C@H](Cc3ccc(-c4ccccc4)cc3)NC(=O)[C@H](Cc3ccc(OCC(=O)O)cc3)NC2=O)c1 [Compound 2172] ({CH2CO}-[Dap]Y(Carboxymethyl)D[Phe(3-Me)]Y(Carboxymethyl)[Bip]Y(Carboxymethyl)[Orn][dL][Dab][Cha]VSC[Abu(3S-NH2)][Aun]-OH; thioether N-14)
55	Cc1cccc(C[C@@H]2NC(=O)[C@H](CC(=O)O)NC(=O)[C@H](Cc3ccc(OCC(=O)O)cc3)NC(=O)[C@H](CN)NC(=O)CSC[C@@H](C(=O)N[C@@H](CCN)C(=O)NCCCCCCCCCCC(=O)O)NC(=O)[C@H]([C@H](C)N)NC(=O)[C@H](C(C)C)NC(=O)[C@H](CC3CCCCC3)NC(=O)[C@H](CCN)NC(=O)[C@@H](CC(C)C)NC(=O)[C@H](CCCN)NC(=O)[C@H](Cc3ccc(OCC(=O)O)cc3)NC(=O)[C@H](Cc3ccc(-c4ccccc4)cc3)NC(=O)[C@H](Cc3ccc(OCC(=O)O)cc3)NC2=O)c1 [Compound 2173] ({CH2CO}-[Dap]Y(Carboxymethyl)D[Phe(3-Me)]Y(Carboxymethyl)[Bip]Y(Carboxymethyl)[Orn][dL][Dab][Cha]V[Abu(3S-NH2)]C[Dab][Aun]-OH; thioether N-14)
11.3	Cc1cccc(C[C@@H]2NC(=O)[C@H](CC(=O)O)NC(=O)[C@H](Cc3ccc(OCC(=O)O)cc3)NC(=O)[C@H](CN)NC(=O)CSC[C@@H](C(=O)N[C@@H](CCN)C(=O)NCCCCCCCCCCC(=O)O)NC(=O)[C@H](CO)NC(=O)[C@H]([C@H](C)N)NC(=O)[C@H](CC3CCCCC3)NC(=O)[C@H](CCN)NC(=O)[C@@H](CC(C)C)NC(=O)[C@H](CCCN)NC(=O)[C@H](Cc3ccc(OCC(=O)O)cc3)NC(=O)[C@H](Cc3ccc(-c4ccccc4)cc3)NC(=O)[C@H](Cc3ccc(OCC(=O)O)cc3)NC2=O)c1 [Compound 2174] ({CH2CO}-[Dap]Y(Carboxymethyl)D[Phe(3-Me)]Y(Carboxymethyl)[Bip]Y(Carboxymethyl)[Orn][dL][Dab][Cha][Abu(3S-NH2)]SC[Dab][Aun]-OH; thioether N-14)
10.8	Cc1cccc(C[C@@H]2NC(=O)[C@H](CC(=O)O)NC(=O)[C@H](Cc3ccc(OCC(=O)O)cc3)NC(=O)[C@H](CN)NC(=O)CSC[C@@H](C(=O)N[C@@H](CCN)C(=O)NCCCCCCCCCCC(=O)O)NC(=O)[C@H](CO)NC(=O)[C@H](C(C)(C)O)NC(=O)[C@H](CC3CCC3)NC(=O)[C@H](CCN)NC(=O)[C@@H](CC(C)C)NC(=O)[C@H](CCCN)NC(=O)[C@H](Cc3ccc(OCC(=O)O)cc3)NC(=O)[C@H](Cc3ccc(-c4ccccc4)cc3)NC(=O)[C@H](Cc3ccc(OCC(=O)O)cc3)NC2=O)c1 [Compound 2175] ({CH2CO}-[Dap]Y(Carboxymethyl)D[Phe(3-Me)]Y(Carboxymethyl)[Bip]Y(Carboxymethyl)[Orn][dL][Dab][Cba][Val(3-OH)]SC[Dab][Aun]-OH; thioether N-14)
105	Cc1cccc(C[C@@H]2NC(=O)[C@H](CC(=O)O)NC(=O)[C@H](Cc3ccc(OCC(=O)O)cc3)NC(=O)[C@H](C(C)(C)CCN)NC(=O)CSC[C@@H](C(=O)N[C@@H](CCN)C(=O)NCCCCCCCCCCCCC(=O)O)NC(=O)[C@H](CO)NC(=O)[C@H](C(C)(C)O)NC(=O)[C@H](CC3CCCCC3)NC(=O)[C@H](CCN)NC(=O)[C@@H](CC(C)C)NC(=O)[C@H](CCCN)NC(=O)[C@H](Cc3ccc(OCC(=O)O)cc3)NC(=O)[C@H](Cc3ccc(-c4ccccc4)cc3)NC(=O)[C@H](Cc3ccc(OCC(=O)O)cc3)NC2=O)c1 [Compound 2176] ({CH2CO}-[X5]Y(Carboxymethyl)D[Phe(3-Me)]Y(Carboxymethyl)[Bip]Y(Carboxymethyl)[Orn][dL][Dab][Cha][Val(3-OH)]SC[Dab]-{NH(CH2)12COOH}; thioether N-14)
144	Cc1cccc(C[C@@H]2NC(=O)[C@H](CC(=O)O)NC(=O)[C@H](Cc3ccc(C(=O)O)cc3)NC(=O)[C@H](Cc3ccncc3)NC(=O)CSC[C@@H](C(=O)N[C@@H](CCN)C(=O)NCCCCCCCCCCC(=O)O)NC(=O)[C@H](CO)NC(=O)[C@H](C(C)(C)O)NC(=O)[C@H](CC3CCCCC3)NC(=O)[C@H](CCN)NC(=O)[C@@H](CC(C)C)NC(=O)[C@H](CCCN)NC(=O)[C@H](Cc3ccc(OCC(=O)O)cc3)NC(=O)[C@H](Cc3ccc(-c4ccccc4)cc3)NC(=O)[C@H](Cc3ccc(OCC(=O)O)cc3)NC2=O)c1 [Compound 2177] ({CH2CO}-[4Pal][Phe(4-COOH)]D[Phe(3-Me)]Y(Carboxymethyl)[Bip]Y(Carboxymethyl)[Orn][dL][Dab][Cha][Val(3-OH)]SC[Dab][Aun]-OH; thioether N-14)
6.4	CCC[C@@H]1NC(=O)CSC[C@@H](C(=O)N[C@@H](CCN)C(=O)NCCCCCCCCCCC(=O)O)NC(=O)[C@H](CO)NC(=O)[C@H](C(C)(C)O)NC(=O)[C@H](CC2CCCCC2)NC(=O)[C@H](CCN)NC(=O)[C@@H](CC(C)C)NC(=O)[C@H](CCCN)NC(=O)[C@H](Cc2ccc(OCC(=O)O)cc2)NC(=O)[C@H](Cc2ccc(-c3ccccc3)cc2)NC(=O)[C@H](Cc2ccc(OCC(=O)O)cc2)NC(=O)[C@H](Cc2cccc(C)c2)NC(=O)[C@H](CC(=O)O)NC(=O)[C@H](Cc2ccc(C(=O)O)cc2)NC1=O [Compound 2178] ({CH2CO}-[Nva][Phe(4-COOH)]D[Phe(3-Me)]Y(Carboxymethyl)[Bip]Y(Carboxymethyl)[Orn][dL][Dab][Cha][Val(3-OH)]SC[Dab][Aun]-OH; thioether N-14)
22	Cc1cccc(C[C@@H]2NC(=O)[C@H](CC(=O)O)NC(=O)[C@H](Cc3ccc(C(=O)O)cc3)NC(=O)[C@H](Cc3cccs3)NC(=O)CSC[C@@H](C(=O)N[C@@H](CCN)C(=O)NCCCCCCCCCCC(=O)O)NC(=O)[C@H](CO)NC(=O)[C@H](C(C)(C)O)NC(=O)[C@H](CC3CCCCC3)NC(=O)[C@H](CCN)NC(=O)[C@@H](CC(C)C)NC(=O)[C@H](CCCN)NC(=O)[C@H](Cc3ccc(OCC(=O)O)cc3)NC(=O)[C@H](Cc3ccc(-c4ccccc4)cc3)NC(=O)[C@H](Cc3ccc(OCC(=O)O)cc3)NC2=O)c1 [Compound 2179] ({CH2CO}-[2Thi][Phe(4-COOH)]D[Phe(3-Me)]Y(Carboxymethyl)[Bip]Y(Carboxymethyl)[Orn][dL][Dab][Cha][Val(3-OH)]SC[Dab][Aun]-OH; thioether N-14)
119	Cc1cccc(C[C@@H]2NC(=O)[C@H](CC(=O)O)NC(=O)[C@H](Cc3ccc(OCC(=O)O)cc3)NC(=O)C3(CC3)NC(=O)CSC[C@@H](C(=O)N[C@@H](CCN)C(=O)NCCCCCCCCCCC(=O)O)NC(=O)[C@H](CO)NC(=O)[C@H](C(C)(C)O)NC(=O)[C@H](CC3CCCCC3)NC(=O)[C@H](CCN)NC(=O)[C@@H](CC(C)C)NC(=O)[C@H](CCCN)NC(=O)[C@H](Cc3ccc(OCC(=O)O)cc3)NC(=O)[C@H](Cc3ccc(-c4ccccc4)cc3)NC(=O)[C@H](Cc3ccc(OCC(=O)O)cc3)NC2=O)c1 [Compound 2180] ({CH2CO}-[Ac3c]Y(Carboxymethyl)D[Phe(3-Me)]Y(Carboxymethyl)[Bip]Y(Carboxymethyl)[Orn][dL][Dab][Cha][Val(3-OH)]SC[Dab][Aun]-OH; thioether N-14)
17.7	COc1ccc(C[C@@H]2NC(=O)CSC[C@@H](C(=O)N[C@@H](CCN)C(=O)NCCCCCCCCCCC(=O)O)NC(=O)[C@H](CO)NC(=O)[C@H](C(C)(C)O)NC(=O)[C@H](CC3CCCCC3)NC(=O)[C@H](CCN)NC(=O)[C@@H](CC(C)C)NC(=O)[C@H](CCCN)NC(=O)[C@H](Cc3ccc(OCC(=O)O)cc3)NC(=O)[C@H](Cc3ccc(-c4ccccc4)cc3)NC(=O)[C@H](Cc3ccc(OCC(=O)O)cc3)NC(=O)[C@H](Cc3cccc(C)c3)NC(=O)[C@H](CC(=O)O)NC(=O)[C@H](Cc3ccc(OCC(=O)O)cc3)NC2=O)cc1 [Compound 2181] ({CH2CO}-Y(Me)Y(Carboxymethyl)D[Phe(3-Me)]Y(Carboxymethyl)[Bip]Y(Carboxymethyl)[Orn][dL][Dab][Cha][Val(3-OH)]SC[Dab][Aun]-OH; thioether N-14)
15.6	Cc1cccc(C[C@@H]2NC(=O)[C@H](CC(=O)O)NC(=O)[C@H](Cc3ccc(OCC(=O)O)cc3)NC(=O)[C@H](Cc3cccs3)NC(=O)CSC[C@@H](C(=O)N[C@@H](CCN)C(=O)NCCCCCCCCCCC(=O)O)NC(=O)[C@H](CO)NC(=O)[C@H](C(C)(C)O)NC(=O)[C@H](CC3CCCCC3)NC(=O)[C@H](CCN)NC(=O)[C@@H](CC(C)C)NC(=O)[C@H](CCCN)NC(=O)[C@H](Cc3ccc(OCC(=O)O)cc3)NC(=O)[C@H](Cc3ccc(-c4ccccc4)cc3)NC(=O)[C@H](Cc3ccc(OCC(=O)O)cc3)NC2=O)c1 [Compound 2182] ({CH2CO}-[2Thi]Y(Carboxymethyl)D[Phe(3-Me)]Y(Carboxymethyl)[Bip]Y(Carboxymethyl)[Orn][dL][Dab][Cha][Val(3-OH)]SC[Dab][Aun]-OH; thioether N-14)
